According to PubChem BioAssay (NCI):
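Compound exposure: 48 hours, 5 concentrations, 96-well plates. The concentration for 50% growth inhibition is given as GI50. TGI is the concentration that stops growth completely.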

How the values were obtained:
Experiment in all cases: inhibition of tumour cell growth, NCI panel, 48 h
HS 578T breast = tested on: HS 578T breast
CCRF-CEM leukemia = tested on: CCRF-CEM leukemia
NCI-H23 lung = tested on: NCI-H23 lung
SF-268 CNS = tested on: SF-268 CNS
K-562 leukemia = tested on: K-562 leukemia
OVCAR-8 ovarian = tested on: OVCAR-8 ovarian
U251 CNS = tested on: U251 CNS
ACHN renal = tested on: ACHN renal
A549 NSCLC = tested on: A549 NSCLC
HCT-15 colon = tested on: HCT-15 colon

| Compound | TGI (HS 578T breast) | TGI (CCRF-CEM leukemia) | TGI (NCI-H23 lung) | TGI (SF-268 CNS) | TGI (K-562 leukemia) | TGI (OVCAR-8 ovarian) | TGI (U251 CNS) | TGI (ACHN renal) | TGI (A549 NSCLC) | TGI (HCT-15 colon) | GI50 (HS 578T breast) | GI50 (CCRF-CEM leukemia) | GI50 (NCI-H23 lung) | GI50 (SF-268 CNS) | GI50 (K-562 leukemia) | GI50 (OVCAR-8 ovarian) | GI50 (U251 CNS) | GI50 (ACHN renal) | GI50 (A549 NSCLC) | GI50 (HCT-15 colon) |
| --- | --- | --- | --- | --- | --- | --- | --- | --- | --- | --- | --- | --- | --- | --- | --- | --- | --- | --- | --- | --- |
| Oc1oc(-c2ccccc2)nc1/C=C1/C=NN=N1 | > 100 µM | > 100 µM | > 100 µM | > 100 µM | > 100 µM | > 100 µM | > 100 µM | > 100 µM | > 100 µM | > 100 µM | – | – | – | – | – | – | – | – | – | – |
| COc1ccc2nc(C3=CN(C4OC(CO)C(O)C(O)C4O)C4C=CC=CC34)sc2c1 (stereo unspecified) | 94.4 µM | > 100 µM | > 100 µM | > 100 µM | 87.7 µM | 77.8 µM | > 100 µM | 46.1 µM | > 100 µM | > 100 µM | 34.4 µM | 42.4 µM | 33.9 µM | > 100 µM | 28.5 µM | 25.2 µM | 28.5 µM | 19 µM | 28.3 µM | 32.4 µM |
| CCC(C)c1cnc(CC(C)C)c(=O)[nH]1 (stereo unspecified) | > 100 µM | > 100 µM | > 100 µM | > 100 µM | > 100 µM | > 100 µM | > 100 µM | > 100 µM | > 100 µM | > 100 µM | – | – | – | – | – | – | – | – | – | – |
| c1cc(C2N3CCCN2CC3)ccn1 (stereo unspecified) | 67.7 µM | > 100 µM | > 100 µM | 30.4 µM | > 100 µM | > 100 µM | > 100 µM | > 100 µM | > 100 µM | > 100 µM | – | – | – | – | – | – | – | – | – | – |
| CN(C)CCC(=O)NCc1c2nc3ccccc3nc2n2ccccc12 | > 100 µM | 78.8 µM | > 100 µM | > 100 µM | > 100 µM | > 100 µM | > 100 µM | > 100 µM | > 100 µM | > 100 µM | > 100 µM | 25.7 µM | 65.6 µM | 41.5 µM | > 100 µM | 84.8 µM | > 100 µM | > 100 µM | > 100 µM | 48.4 µM |
| Cc1cccc2cc3ccc4ccccc4c3cc12 | > 100 µM | 39.3 µM | > 100 µM | > 100 µM | > 100 µM | > 100 µM | > 100 µM | > 100 µM | > 100 µM | > 100 µM | – | – | – | – | – | – | – | – | – | – |
| Cc1sc2c(c1C)C(c1ccc(Cl)cc1)=N[C@@H](CC(=O)Nc1ccc(O)cc1)c1nnc(C)n1-2 | 27.2 µM | 31.4 µM | 39.2 µM | 50.8 µM | 60.3 µM | 40.6 µM | 21.7 µM | 29.9 µM | 26.8 µM | 14.9 µM | 0.169 µM | 0.317 µM | 7.98 µM | 11.8 µM | 0.499 µM | 2.26 µM | 3.78 µM | 1.28 µM | 2.6 µM | 1.46 µM |
| C=C(C)C1CCC2(CO)C(O)CC3(C)C(CCC4C5(C)CCC(O)C(C)(C)C5CCC43C)C12 (stereo unspecified) | 90.7 µM | > 100 µM | – | > 100 µM | 33.3 µM | 20.7 µM | 9.96 µM | 15.4 µM | 32.6 µM | 88 µM | – | – | – | – | – | – | – | – | – | – |
| CC1CCC(C#N)(NOC2=NCCN2)CC1 (stereo unspecified) | > 100 µM | > 100 µM | > 100 µM | > 100 µM | > 100 µM | > 100 µM | 32.4 µM | 30.1 µM | > 100 µM | > 100 µM | > 100 µM | 56 µM | 34 µM | 63.1 µM | 29.8 µM | 29.2 µM | 15.8 µM | 15.2 µM | 39.4 µM | 27.8 µM |
| Cc1ccc2oc(=O)cc(C3c4ccc([nH]4)C(c4cc(=O)oc5ccc(C)cc45)c4ccc([nH]4)C(c4cc(=O)oc5ccc(C)cc45)c4ccc([nH]4)C(c4cc(=O)oc5ccc(C)cc45)c4ccc3[nH]4)c2c1 (stereo unspecified) | 2.02 µM | > 100 µM | 1.58 µM | 1.47 µM | – | 1.52 µM | 1.27 µM | 2.67 µM | 1.54 µM | 1.21 µM | 0.0351 µM | 0.0359 µM | 0.0574 µM | 0.0561 µM | – | 0.0338 µM | 0.0369 µM | 0.0621 µM | 0.063 µM | 0.0317 µM |
| Nc1n[n+]([O-])c2cnccc2[n+]1[O-] | > 100 µM | > 100 µM | > 100 µM | > 100 µM | – | > 100 µM | > 100 µM | > 100 µM | > 100 µM | > 100 µM | – | – | – | – | – | – | – | – | – | – |
| COc1cccc2cc(N(C)c3nc(C)nc4ccsc34)ccc12 | 22.4 µM | > 100 µM | 18 µM | 13.9 µM | > 48.6 µM | 38.5 µM | 15.1 µM | 13.3 µM | 16 µM | 13.5 µM | < 0.01 µM | < 0.01 µM | < 0.01 µM | < 0.01 µM | < 0.01 µM | < 0.01 µM | < 0.01 µM | < 0.01 µM | < 0.01 µM | < 0.01 µM |
| NCCCn1c2c(c3ccc([N+](=O)[O-])cc3c1=O)C(=O)c1cc(Cl)ccc1-2 | 2.8 µM | 0.0104 µM | 0.055 µM | 0.391 µM | 0.0411 µM | 0.109 µM | 0.123 µM | 0.124 µM | 0.116 µM | 0.208 µM | 1.11 µM | < 0.01 µM | < 0.01 µM | < 0.01 µM | < 0.01 µM | < 0.01 µM | < 0.01 µM | < 0.01 µM | < 0.01 µM | 0.0285 µM |
| Cc1[nH]ccc2cc3nc4ccccc4c3cc12 | 18 µM | 10 µM | 14.5 µM | 14.2 µM | 10.4 µM | 11.7 µM | 12.4 µM | 10.6 µM | 12.2 µM | 5.9 µM | 3.26 µM | 1.5 µM | 2.55 µM | 2.97 µM | 2.8 µM | 1.72 µM | 2.82 µM | 0.963 µM | 2.5 µM | 1.84 µM |
